Laboratory results published in publication PMC5829251, “NAD^+ analog reveals PARP-1 substrate-blocking mechanism and allosteric communication from catalytic center to DNA-binding domains” (Nature Communications, 2018).

Experiments:
Format in all cases: binding
full-length PARP-1 WT [1] = biological target: T1, full-length PARP-1 WT (Homo sapiens, UniProt P09874); test: DSF, full-length PARP-1 WT with or without DNA; settings: BAD 1250 μM; for TM: in °C (unit assumed)
T1 construct: Full-length PARP-1 WT (residues 1–1014) was cloned in pET28 vector; made in house; host or cells: E. coli
Description: (§1) DSF experiments were performed as described, [13] using 5 µM protein, 2.5 µM DNA when indicated and various concentrations of compound (BAD, carba-NAD^+, benzamide, and ADP-ribose) as indicated in Fig. 1 and Fig. 3. Experiments were performed on a Roche LightCycler 480 RT-PCR. Reactions including DNA were performed with a 26- or 28-base pair (bp) unphosphorylated oligonucleotide for PARP-1, a 28-bp 5´-phosphorylated (5´P) oligonucleotide for PARP-2, and a 47-bp oligonucleotide including a central 5´P nick for PARP-3^13 in the following buffer: 25 mM Hepes pH 8.0, 150 mM NaCl, 1 mM EDTA, and 0.1 mM TCEP. Reactions with PARP-3 were conducted at lower ionic strength to allow binding to DNA as described (25 mM Hepes pH 8.0, 50 mM NaCl, 1 mM EDTA and 0.1 mM TCEP)[13]. ΔTM values were calculated by subtracting the TM determined for the protein in the absence of compound from the TM determined in the presence of compound. Experiments were performed in triplicate and a Boltzmann sigmoid was fit to the data to determine the TM values (KaleidaGraph).

full-length PARP-1 WT [2] = biological target: T1, full-length PARP-1 WT; test: One-dimensional 1H NMR monitoring BAD protons
Description: Full-length PARP-1 WT and a dumbbell DNA containing a central 1-nucleotide gap (5′-[…]-3′)[7], were dialyzed against a modified PBS buffer (222 mM NaCl, 2.7 mM KCl, 200 μM DTT, 10 mM sodium phosphate, pH 7.4). An aliquot of the dialysis PBS buffer was then lyophylized and resuspended in deuterated water (D2O). The NMR samples were prepared by diluting the protein (40 μM final), DNA (40 μM final), and BAD (20 μM final) in the deuterated buffer such that all samples contained 85% D2O final. The samples were incubated 30 min at RT prior to collecting the NMR spectra. ^1H (700.303 MHz) NMR spectra were acquired with a Bruker Avance II 700 spectrometer equipped with a 16.4 T narrowbore magnet and a double-resonance (^1 H/^13 C) cryoprobe. All samples were run using 3 mm NMR tubes (180 µL). 1D experiments were acquired with excitation sculpting to suppress residual water signal. The use of D2O as the primary solvent (85%) removed the signals from amide hydrogens in the region of interest (7–9 ppm), however a low-power T1p filter (70 ms) was necessary after the 90-degree excitation pulse to reduce signals from the non-exchangeable hydrogens arising from the large, slowly tumbling protein and DNA.

PARP-3 = biological target: T2, PARP-3 (Homo sapiens, UniProt Q9Y6F1); test: DSF, full-length PARP-3 with or without DNA; settings: for TM: Figure 3c, BAD 1250 μM, in °C (unit assumed)
T2 construct: PARP-3 (isoform b, residues 1–533) was cloned in pDEST17 vector; made in house
T2 sequence (Q9Y6F1 1-533): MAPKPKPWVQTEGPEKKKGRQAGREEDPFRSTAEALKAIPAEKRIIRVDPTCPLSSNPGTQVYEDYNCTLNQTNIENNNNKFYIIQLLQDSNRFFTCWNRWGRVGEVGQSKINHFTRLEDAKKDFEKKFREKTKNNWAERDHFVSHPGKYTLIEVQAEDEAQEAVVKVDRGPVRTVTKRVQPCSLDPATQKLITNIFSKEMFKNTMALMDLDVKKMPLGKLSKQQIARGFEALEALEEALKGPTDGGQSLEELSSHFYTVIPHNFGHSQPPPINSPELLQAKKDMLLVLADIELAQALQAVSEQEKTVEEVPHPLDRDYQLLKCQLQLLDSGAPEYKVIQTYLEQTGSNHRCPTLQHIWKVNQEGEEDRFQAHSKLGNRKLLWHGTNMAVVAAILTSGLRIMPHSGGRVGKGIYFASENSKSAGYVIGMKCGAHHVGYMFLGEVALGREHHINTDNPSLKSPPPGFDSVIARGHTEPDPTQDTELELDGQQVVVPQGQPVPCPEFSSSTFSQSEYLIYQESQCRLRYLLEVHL
Description: as §1

PARP-1 W246A = biological target: T3, PARP-1 W246A (Homo sapiens, UniProt P09874, W246A); test: DSF, full-length PARP-1 W246A with or without DNA; settings: for TM: Figure 3b, BAD 1250 μM, in °C (unit assumed)
T3 construct: Full-length PARP-1 WT (residues 1–1014) was cloned in pET28 vector and site-directed mutagenesis was performed; made in house; host or cells: E. coli
Description: as §1

[3] = biological target: T4, PARP-1 double mutant D766/D770A (Homo sapiens, UniProt P09874, D766A/D770A); test: DSF, full-length PARP-1 D766/D770A; settings: BAD 1250 μM
T4 construct: Full-length PARP-1 WT (residues 1–1014) was cloned in pET28 vector and site-directed mutagenesis was performed; made in house; host or cells: E. coli
Description: as §1

PARP-2 = biological target: T5, PARP-2 (Homo sapiens, UniProt Q9UGN5); test: DSF, full-length PARP-2 with or without DNA; settings: for TM: Figure 3c, BAD 1250 μM, in °C (unit assumed)
T5 construct: PARP-2 (isoform 2, residues 1–570) was cloned in pET28 vector; made in house
Description: as §1

PARP-1 K633A = biological target: T6, PARP-1 K633A (Homo sapiens, UniProt P09874, K633A); test: DSF, full-length PARP-1 K633A with or without DNA; settings: for TM: Figure 3b, BAD 1250 μM, in °C (unit assumed)
T6 construct: Full-length PARP-1 WT (residues 1–1014) was cloned in pET28 vector and site-directed mutagenesis was performed; made in house; host or cells: E. coli
Description: as §1

T3 sequence (P09874 whole entry W246A, the tested form may be a part): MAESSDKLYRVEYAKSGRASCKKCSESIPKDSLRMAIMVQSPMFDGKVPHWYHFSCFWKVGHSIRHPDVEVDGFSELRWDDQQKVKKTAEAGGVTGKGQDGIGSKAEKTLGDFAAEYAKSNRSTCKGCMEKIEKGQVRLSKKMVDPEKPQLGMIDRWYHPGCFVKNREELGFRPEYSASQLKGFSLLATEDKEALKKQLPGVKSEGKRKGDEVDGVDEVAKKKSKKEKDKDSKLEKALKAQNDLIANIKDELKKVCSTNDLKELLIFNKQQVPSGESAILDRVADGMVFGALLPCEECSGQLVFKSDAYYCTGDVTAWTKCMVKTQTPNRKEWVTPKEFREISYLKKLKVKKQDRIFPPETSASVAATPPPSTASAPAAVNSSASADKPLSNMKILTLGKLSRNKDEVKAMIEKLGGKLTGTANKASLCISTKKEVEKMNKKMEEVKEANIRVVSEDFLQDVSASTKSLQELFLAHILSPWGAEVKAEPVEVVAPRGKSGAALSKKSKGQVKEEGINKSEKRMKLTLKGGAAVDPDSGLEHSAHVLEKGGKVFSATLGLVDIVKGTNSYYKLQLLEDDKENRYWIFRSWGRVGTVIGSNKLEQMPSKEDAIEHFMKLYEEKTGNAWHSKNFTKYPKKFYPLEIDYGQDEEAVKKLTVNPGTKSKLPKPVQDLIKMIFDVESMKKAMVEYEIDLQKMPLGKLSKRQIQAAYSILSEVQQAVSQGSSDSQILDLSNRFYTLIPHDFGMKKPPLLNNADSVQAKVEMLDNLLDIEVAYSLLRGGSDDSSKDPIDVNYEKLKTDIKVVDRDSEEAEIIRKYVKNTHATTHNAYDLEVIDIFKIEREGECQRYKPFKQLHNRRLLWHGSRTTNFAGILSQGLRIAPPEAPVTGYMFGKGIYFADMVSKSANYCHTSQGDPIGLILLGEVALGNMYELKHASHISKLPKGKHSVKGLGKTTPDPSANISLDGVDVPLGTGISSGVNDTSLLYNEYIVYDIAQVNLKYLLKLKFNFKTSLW
T6 sequence (P09874 whole entry K633A, the tested form may be a part): as the sequence (P09874 whole entry W246A, the tested form may be a part) above, with A246W, K633A counted along it
T1 sequence (P09874 whole entry, the tested form may be a part): as the sequence (P09874 whole entry W246A, the tested form may be a part) above, with A246W counted along it
T5 sequence (Q9UGN5 1-570 isoform Q9UGN5-2): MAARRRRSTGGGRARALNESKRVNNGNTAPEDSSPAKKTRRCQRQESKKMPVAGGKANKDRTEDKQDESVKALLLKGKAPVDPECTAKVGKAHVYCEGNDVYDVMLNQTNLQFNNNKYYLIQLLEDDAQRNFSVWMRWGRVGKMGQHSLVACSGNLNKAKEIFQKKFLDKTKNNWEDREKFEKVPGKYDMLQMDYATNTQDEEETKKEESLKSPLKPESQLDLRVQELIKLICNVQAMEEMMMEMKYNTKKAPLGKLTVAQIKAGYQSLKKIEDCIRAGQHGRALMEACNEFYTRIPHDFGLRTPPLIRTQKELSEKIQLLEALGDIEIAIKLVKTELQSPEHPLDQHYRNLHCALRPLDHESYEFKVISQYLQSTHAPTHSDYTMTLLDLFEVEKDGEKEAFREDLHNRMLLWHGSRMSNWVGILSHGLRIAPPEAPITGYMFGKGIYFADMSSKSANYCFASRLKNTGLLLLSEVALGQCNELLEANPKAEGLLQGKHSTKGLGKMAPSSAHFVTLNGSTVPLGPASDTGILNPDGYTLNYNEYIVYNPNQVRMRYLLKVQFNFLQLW
T4 sequence (P09874 whole entry D766A/D770A, the tested form may be a part): as the sequence (P09874 whole entry W246A, the tested form may be a part) above, with A246W, D766A, D770A counted along it

In the case of `NC(=O)c1cccc(C2OC(COP(=O)(O)OP(=O)(O)OCC3OC(n4cnc5c(N)ncnc54)C(O)C3O)C(O)C2O)c1` (centres unmarked) [BAD, benzamide adenine dinucleotide], the “increase in the TM of full-length PARP-1 owing to BAD” value (full-length PARP-1 WT [1]; with or without DNA (2.5 μM)) is reported as “observed only with DNA present”, the TM (full-length PARP-1 WT [1]; Figure 3a, WT with DNA (2.5 μM, 26-bp duplex), TM without BAD 44.35) is reported as 47.65 and the TM (full-length PARP-1 WT [1]; Figure 3a, WT, no DNA, TM without BAD 48.17) is reported as 48.19. It also gave a TM (full-length PARP-1 WT [1]; Figure 3b, WT with DNA (2.5 μM, 26-bp duplex), TM without BAD 42.85) of 45.99, a TM (full-length PARP-1 WT [1]; Figure 3b, WT, no DNA, TM without BAD 47.41) of 47.09 and a TM (full-length PARP-1 WT [1]; Figure 3c, PARP-1, no DNA, TM without BAD 47.93) of 48.15. The TM (full-length PARP-1 WT [1]; Figure 3c, PARP-1 with DNA (2.5 μM, 28-bp duplex), TM without BAD 44.45) was 48.03, the “level of signal reduction of BAD spectrum peaks” value (full-length PARP-1 WT [2]; BAD 20 μM with PARP-1 40 μM and DNA 40 μM (dumbbell DNA, central 1 nt-gap)) was ~ 95% and the “BAD spectrum compared with BAD alone” value (full-length PARP-1 WT [2]; BAD 20 μM with PARP-1 40 µM, no DNA) was “essentially identical spectrum”. The TM (PARP-3; PARP-3, no DNA, TM without BAD 35.81) was 35.54, the TM (PARP-3; PARP-3 with DNA (2.5 μM, 47-bp duplex with central 5'P nick), TM without BAD 39.70) was 41.02 and the “evidence of BAD binding in the DSF assay” value (PARP-3; PARP-3, with or without DNA bearing 5'P) was “only showed evidence of BAD binding in the presence of activating DNA”. The TM (PARP-1 W246A; W246A with DNA (2.5 μM), TM without BAD 47.45) was 47.41, the TM (PARP-1 W246A; W246A, no DNA, TM without BAD 47.24) was 47.23 and the “TM shift in the presence of BAD and DNA” value (PARP-1 W246A; W246A (Zn1–Zn3 interface mutation), relative to WT) was “substantial reduction in TM shift”. The TM ([3]; Figure 3a, no DNA, TM without BAD 45.94) was 48.5 °C, the “TM change in the presence of BAD” value ([3]; did not require the presence of DNA) was “increase in TM” and the TM (PARP-2; PARP-2, no DNA, TM without BAD 47.71) was 47.47. For the same compound, the TM (PARP-2; PARP-2 with DNA (2.5 μM, 28-bp duplex 5'P), TM without BAD 45.44) was 47.28, the “evidence of BAD binding in the DSF assay” value (PARP-2; PARP-2, with or without DNA bearing 5'P) was “only showed evidence of BAD binding in the presence of activating DNA” and the TM (PARP-1 K633A; K633A with DNA (2.5 μM), TM without BAD 44.76) was 44.86. For the same compound, the TM (PARP-1 K633A; K633A, no DNA, TM without BAD 45.50) was 45.32 and the “TM shift in the presence of BAD and DNA” value (PARP-1 K633A; K633A (Zn3–WGR–HD interface mutation), relative to WT) was “substantial reduction in TM shift”.
